Counter-ions that a name gives are not always drawn.

By melting point is commonly meant the temperature of the solid-liquid transition. As for `Cc1ccc(C(NC(=O)C(C)(C)c2ccc(N3CCS(=O)(=O)CC3)cc2)c2ccc(C)o2)c(C)c1` (stereo not drawn) (as salt: HCl) [Cpd. 40, N-[(2,4-dimethylphenyl)(5-methylfuran-2-yl)methyl]-2-[4-(1,1-dioxo-1-thiomorpholin-4-yl)phenyl]-2-methylpropanamide], the melting point is 67 °C.

The compound `Cc1ccc(C(NC(=O)C2(c3ccc(N4CCS(=O)(=O)CC4)cc3)CCC2)c2ccc(C)o2)c(C)c1` (stereo not drawn) (as salt: HCl) [Cpd. 41, N-[(2,4-dimethylphenyl)(5-methylfuran-2-yl)methyl]-1-[4-(1,1-dioxo-1-thiomorpholin-4-yl)phenyl]cyclobutane-1-carboxamide] came in with a melting point of 79 °C.

`Cc1ccc(C(NC(=O)Cc2cnc(N3CCS(=O)(=O)CC3)nc2C)c2ccc(C)o2)c(C)c1` (stereo not drawn) (as salt: HCl) [Cpd. 42, N-[(2,4-dimethylphenyl)(5-methylfuran-2-yl)methyl]-2-[2-(1,1-dioxo-1-thiomorpholin-4-yl)-4-methylpyrimidin-5-yl]acetamide] registered a melting point of 211 °C.

The compound `Cc1ccc(C(NC(=O)Cc2ccc(O)c(N3CCS(=O)(=O)CC3)c2)c2ccc(C)o2)c(C)c1` (stereo not drawn) (as salt: HCl) [Cpd. 43, N-[(2,4-dimethylphenyl)(5-methylfuran-2-yl)methyl]-2-[3-(1,1-dioxo-1-thiomorpholin-4-yl)-4-hydroxyphenyl]acetamide] showed a melting point of 146 °C.

`COc1ccc(C(NC(=O)C2(c3ccc(N4CCS(=O)(=O)CC4)cc3)CC2)c2ccc(C)o2)c(C)c1` (stereo not drawn) (as salt: HCl) [Cpd. 44, 1-[4-(1,1-dioxo-1-thiomorpholin-4-yl)phenyl]-N-[(4-methoxy-2-methylphenyl)(5-methylfuran-2-yl)methyl]cyclopropane-1-carboxamide] returned a melting point of 77 °C.

In turn, `COc1ccc(C(NC(=O)Cc2cnc(N3CCS(=O)(=O)CC3)nc2)c2ccc(C)o2)c(N2CCCCCC2)c1` (stereo not drawn) (as salt: HCl) [Cpd. 45, N-{[2-(azepan-1-yl)-4-methoxyphenyl](5-methylfuran-2-yl)methyl}-2-[2-(1,1-dioxo-1-thiomorpholin-4-yl)pyrimidin-5-yl]acetamide] showed a melting point of 106 °C.

For the compound `COc1ccc(C(NC(=O)C2(c3ccc(N4CCS(=O)(=O)CC4)cc3)CC2)c2ccc(C)o2)c(N2CCCCCC2)c1` (stereo not drawn) (as salt: HCl) [Cpd. 46, N-{[2-(azepan-1-yl)-4-methoxyphenyl](5-methylfuran-2-yl)methyl}-1-[4-(1,1-dioxo-1-thiomorpholin-4-yl)phenyl]cyclopropane-1-carboxamide], the melting point is 90 °C.

`Cc1ccc(C(NC(=O)Cc2ccc(N3CCS(=O)(=O)CC3)cn2)c2ccc(C)o2)c(N2CCCCC2)c1` (stereo not drawn) (as salt: HCl) [Cpd. 47, 2-[5-(1,1-dioxo-1-thiomorpholin-4-yl)pyridin-2-yl]-N-{[4-methyl-2-(piperidin-1-yl)phenyl](5-methylfuran-2-yl)methyl}acetamide] displayed a melting point of 102 °C.

Regarding `Cc1ccc(C(NC(=O)C2(c3cnc(N4CCS(=O)(=O)CC4)nc3)CC2)c2ccc(C)o2)c(C)c1` (stereo not drawn) (as salt: HCl) [Cpd. 48, N-[(2,4-dimethylphenyl)(5-methylfuran-2-yl)methyl]-1-[2-(1,1-dioxo-1-thiomorpholin-4-yl)pyrimidin-5-yl]cyclopropane-1-carboxamide], the melting point worked out at 82 °C.

The compound `Cc1ccc(C(NC(=O)Cc2cnc(N3CCS(=O)(=O)CC3)nc2)c2ccc(Cl)cc2Cl)o1` (stereo not drawn) (as salt: HCl) [Cpd. 50, N-[(2,4-dichlorophenyl)(5-methylfuran-2-yl)methyl]-2-[2-(1,1-dioxo-1-thiomorpholin-4-yl)pyrimidin-5-yl]acetamide] displayed a melting point of 215 °C.

`Cc1ccc(C(NC(=O)Cc2cnc(N3CCS(=O)(=O)CC3)nc2)c2ccc(C)o2)c(Cl)c1` (stereo not drawn) (as salt: HCl) [Cpd. 51, N-[(2-chloro-4-methylphenyl)(5-methylfuran-2-yl)methyl]-2-[2-(1,1-dioxo-1-thiomorpholin-4-yl)pyrimidin-5-yl]acetamide] yielded a melting point of 208 °C.

The compound `Cc1ccc(C(NC(=O)C2(c3cnc(N4CCS(=O)(=O)CC4)nc3)CC2)c2ccc(C)o2)c(Cl)c1` (stereo not drawn) (as salt: HCl) [Cpd. 52, N-[(2-chloro-4-methylphenyl)(5-methylfuran-2-yl)methyl]-1-[2-(1,1-dioxo-1-thiomorpholin-4-yl)pyrimidin-5-yl]cyclopropane-1-carboxamide] returned a melting point of 98 °C.

With `Cc1ccc(C(NC(=O)C2(c3cnc(N4CCS(=O)(=O)CC4)nc3)CC2)c2ccc(Cl)cc2C)o1` (stereo not drawn) (as salt: HCl) [Cpd. 53, N-[(4-chloro-2-methylphenyl)(5-methylfuran-2-yl)methyl]-1-[2-(1,1-dioxo-1-thiomorpholin-4-yl)pyrimidin-5-yl]cyclopropane-1-carboxamide], the melting point stood at 162 °C.

The compound `Cc1ccc(C(NC(=O)C2(c3cnc(N4CCS(=O)(=O)CC4)nc3)CC2)c2ccc(Cl)cc2Cl)o1` (stereo not drawn) (as salt: HCl) [Cpd. 54, N-[(2,4-dichlorophenyl)(5-methylfuran-2-yl)methyl]-1-[2-(1,1-dioxo-1-thiomorpholin-4-yl)pyrimidin-5-yl]cyclopropane-1-carboxamide] showed a melting point of 145 °C.

The compound `Cc1ccc(C(NC(=O)C2(c3ccc(N4CCS(=O)(=O)CC4)cc3)CCC2)c2ccc(C)o2)c(N2CCCCC2)c1` (stereo not drawn) (as salt: HCl) [Cpd. 55, 1-[4-(1,1-dioxo-1-thiomorpholin-4-yl)phenyl]-N-{[4-methyl-2-(piperidin-1-yl)phenyl](5-methylfuran-2-yl)methyl}cyclobutane-1-carboxamide] came in with a melting point of 87 °C.

Turning to `COc1ccc(C(NC(=O)C2(c3cnc(N4CCS(=O)(=O)CC4)nc3)CC2)c2ccc(C)o2)c(C)c1` (stereo not drawn) (as salt: HCl) [Cpd. 57, 1-[2-(1,1-dioxo-1-thiomorpholin-4-yl)pyrimidin-5-yl]-N-[(4-methoxy-2-methylphenyl)(5-methylfuran-2-yl)methyl]cyclopropane-1-carboxamide], the melting point came to 101 °C.

`Cc1ccc(C(NC(=O)Cc2ccc(N3CCS(=O)(=O)CC3)c(O)c2)c2ccc(C)o2)c(N2CCCCC2)c1` (stereo not drawn) (as salt: HCl) [Cpd. 61, 2-[4-(1,1-dioxo-1-thiomorpholin-4-yl)-3-hydroxyphenyl]-N-{[4-methyl-2-(piperidin-1-yl)phenyl](5-methylfuran-2-yl)methyl}acetamide] displayed a melting point of 105 °C.

In turn, `COCc1ccc(CC(=O)NC(c2ccc(C)o2)c2ccc(C)cc2N2CCCCC2)cc1N1CCS(=O)(=O)CC1` (stereo not drawn) (as salt: HCl) [Cpd. 62, 2-[3-(1,1-dioxo-1-thiomorpholin-4-yl)-4-(methoxymethyl)phenyl]-N-{[4-methyl-2-(piperidin-1-yl)phenyl](5-methylfuran-2-yl)methyl}acetamide] yielded a melting point of 87 °C.

For the compound `Cc1ccc(C(NC(=O)Cc2ccc(CO)c(N3CCS(=O)(=O)CC3)c2)c2ccc(C)o2)c(N2CCCCC2)c1` (stereo not drawn) (as salt: HCl) [Cpd. 63, 2-[3-(1,1-dioxo-1-thiomorpholin-4-yl)-4-(hydroxymethyl)phenyl]-N-{[4-methyl-2-(piperidin-1-yl)phenyl](5-methylfuran-2-yl)methyl}acetamide], the melting point stood at 100 °C.

In turn, `Cc1ccc(C(NC(=O)Cc2ncc(N3CCS(=O)(=O)CC3)cn2)c2ccc(C)o2)c(N2CCCCC2)c1` (stereo not drawn) (as salt: HCl) [Cpd. 65, 2-[5-(1,1-dioxo-1-thiomorpholin-4-yl)pyrimidin-2-yl]-N-{[4-methyl-2-(piperidin-1-yl)phenyl](5-methylfuran-2-yl)methyl}acetamide] yielded a melting point of 99 °C.

The compound `Cc1ccc(C(NC(=O)C2(c3ccc(N4CCS(=O)(=O)CC4)cc3)CC2)c2ccc(Cl)o2)c(C)c1` (stereo not drawn) (as salt: HCl) [Cpd. 66, N-[(5-chlorofuran-2-yl)(2,4-dimethylphenyl)methyl]-1-[4-(1,1-dioxo-1-thiomorpholin-4-yl)phenyl]cyclopropane-1-carboxamide] came in with a melting point of 76 °C.

For the compound `Cc1ccc(C(NC(=O)C2(c3ccc(N4CCS(=O)(=O)CC4)cc3)CC2)c2ccc(Cl)o2)cc1` (stereo not drawn) (as salt: HCl) [Cpd. 67, N-[(5-chlorofuran-2-yl)(4-methylphenyl)methyl]-1-[4-(1,1-dioxo-1-thiomorpholin-4-yl)phenyl]cyclopropane-1-carboxamide], the melting point was found to be 157 °C.

Compound `Cc1ccc(C(NC(=O)C2(c3cccc(N4CCS(=O)(=O)CC4)c3)CC2)c2ccc(C)o2)c(C)c1` (stereo not drawn) (as salt: HCl) [Cpd. 68, N-[(2,4-dimethylphenyl)(5-methylfuran-2-yl)methyl]-1-[3-(1,1-dioxo-1-thiomorpholin-4-yl)phenyl]cyclopropane-1-carboxamide] had a melting point of 72 °C.

`COc1ccc(C2(C(=O)NC(c3ccc(C)o3)c3ccc(C)cc3C)CC2)cc1N1CCS(=O)(=O)CC1` (stereo not drawn) (as salt: HCl) [Cpd. 69, N-[(2,4-dimethylphenyl)(5-methylfuran-2-yl)methyl]-1-[3-(1,1-dioxo-1-thiomorpholin-4-yl)-4-methoxyphenyl]cyclopropane-1-carboxamide] gave a melting point of 174 °C.

In the case of `Cc1ccc(C(NC(=O)C2(c3cc(N4CCS(=O)(=O)CC4)ccc3C)CC2)c2ccc(C)o2)c(C)c1` (stereo not drawn) (as salt: HCl) [Cpd. 70, N-[(2,4-dimethylphenyl)(5-methylfuran-2-yl)methyl]-1-[5-(1,1-dioxo-1-thiomorpholin-4-yl)-2-methylphenyl]cyclopropane-1-carboxamide], the melting point was 86 °C.

The compound `Cc1ccc(C(NC(=O)C2(c3ccc(N4CCS(=O)(=O)CC4)c(C)n3)CC2)c2ccc(C)o2)c(C)c1` (stereo not drawn) (as salt: HCl) [Cpd. 71, N-[(2,4-dimethylphenyl)(5-methylfuran-2-yl)methyl]-1-[5-(1,1-dioxo-1-thiomorpholin-4-yl)-6-methylpyridin-2-yl]cyclopropane-1-carboxamide] yielded a melting point of 74 °C.

Consider `Cc1ccc(C(NC(=O)C2(c3ncc(N4CCS(=O)(=O)CC4)cc3C)CC2)c2ccc(C)o2)c(C)c1` (stereo not drawn) (as salt: HCl) [Cpd. 72, N-[(2,4-dimethylphenyl)(5-methylfuran-2-yl)methyl]-1-[5-(1,1-dioxo-1-thiomorpholin-4-yl)-3-methylpyridin-2-yl]cyclopropane-1-carboxamide], for which the melting point came out at 87 °C.

The values are drawn from patent US11077115B2, “Rorgamma modulators and uses thereof” (Genfit, priority 2017, dated 2021).
